# Assay results as given in patent US9416125B2, “Substituted cycloalkenopyrazoles as BUB1 inhibitors for the treatment of cancer” (BAYER PHARMA AKTIENGESELLSCHAFT, priority 2012, dated 2016).
# Columns and labels:
# [1] = target: T1, catalytic domain of human Bub1 (amino acids 704-1085) (Homo sapiens, UniProt O43683); test: Bub1 kinase assay (TR-FRET); type: biochemical; settings: 10 μM ATP, 1 μM peptide substrate, median, read-out: Biological Assay 1: Bub1 kinase assay median IC50
# T1 construct: catalytic domain of human Bub1 (amino acids 704-1085); His6 (N); made in house; host or cells: Hi5 insect cells
# Text: Bub1-inhibitory activities of compounds described in the present invention were quantified using a time-resolved fluorescence energy transfer (TR-FRET) kinase assay which measures phosphorylation of the synthetic peptide Biotin-Ahx-VLLPKKSFAEPG (C-terminus in amide form), purchased from e.g. Biosyntan (Berlin, Germany) by the (recombinant) catalytic domain of human Bub1 (amino acids 704-1085), expressed in Hi5 insect cells with an N-terminal His6-tag and purified by affinity- (Ni-NTA) and size exclusion chromatography.
# In a typical assay 11 different concentrations of each compound (0.1 nM, 0.33 nM, 1.1 nM, 3.8 nM, 13 nM, 44 nM, 0.15 μM, 0.51 μM, 1.7 μM, 5.9 μM and 20 μM) were tested in duplicate within the same microtiter plate. To this end, 100-fold concentrated compound solutions (in DMSO) were previously prepared by serial dilution (1:3.4) of 2 mM stocks in a clear low volume 384-well source microtiter plate (Greiner Bio-One, Frickenhausen, Germany), from which 50 nL of compounds were transferred into a black low volume test microtiter plate from the same supplier. Subsequently, 2 μL of Bub1 (the final concentration of Bub1 was adjusted depending on the activity of the enzyme lot in order to be within the linear dynamic range of the assay: typically ˜200 ng/mL were used) in aqueous assay buffer [50 mM Tris/HCl pH 7.5, 10 mM magnesium chloride (MgCl2), 200 mM potassium chloride (KCl), 1.0 mM dithiothreitol (DTT), 0.1 mM sodium ortho-vanadate, 1% (v/v) glycerol, 0.01% (w/v) bovine serum albumine (BSA), 0.005% (v/v) Trition X-100 (Sigma), 1× Complete EDTA-free protease inhibitor mixture (Roche)] were added to the compounds in the test plate and the mixture was incubated for 15 min at 22° C. to allow pre-equilibration of the putative enzyme-inhibitor complexes before the start of the kinase reaction, which was initiated by the addition of 3 μL 1.67-fold concentrated solution (in assay buffer) of adenosine-tri-phosphate (ATP, 10 μM final concentration) and peptide substrate (1 μM final concentration). The resulting mixture (5 μL final volume) was incubated at 22° C. during 60 min, and the reaction was stopped by the addition of 5 μL of an aqueous EDTA-solution (50 mM EDTA, in 100 mM HEPES pH 7.5 and 0.2% (w/v) bovine serum albumin) which also contained the TR-FRET detection reagents (0.2 μM streptavidin-XL665 [Cisbio Bioassays, Codolet, France] and 1 nM anti-phosho-Serine antibody [Merck Millipore, cat. #35-001] and 0.4 nM LANCE EU-W1024 labeled anti-mouse IgG antibody [Perkin-Elmer, product no. AD0077, alternatively a Terbium-cryptate-labeled anti-mouse IgG antibody from Cisbio Bioassays can be used]). The stopped reaction mixture was further incubated 1 h at 22° C. in order to allow the formation of complexes between peptides and detection reagents. Subsequently, the amount of product was evaluated by measurement of the resonance energy transfer from the Eu-chelate-antibody complex recognizing the Phosphoserine residue to the streptavidin-XL665 bound to the biotin moiety of the peptide. To this end, the fluorescence emissions at 620 nm and 665 nm after excitation at 330-350 nm were measured in GTR-FRET plate reader, e.g. a Rubystar or Pherastar (both from BMG Labtechnologies, Offenburg, Germany) or a Viewlux (Perkin-Elmer) and the ratio of the emissions (665 nm/622 nm) was taken as indicator for the amount of phosphorylated substrate. The data were normalised using two sets of (typically 32-) control wells for high- (=enzyme reaction without inhibitor=0%=Minimum inhibition) and low- (=all assay components without enzyme=100%=Maximum inhibition) Bub1 activity. IC50 values were calculated by fitting the normalized inhibition data to a 4-parameter logistic equation (Minimum, Maximum, IC50, Hill; Y=Max+(Min−Max)/(1+(X/IC50)Hill)).
# HeLa cell line = test: Proliferation assay (crystal violet staining); type: cell-based; settings: Homo sapiens, 96 h, 4 days incubation, range 0.001-10 μM, median, read-out: Biological Assay 2: Proliferation assay (HeLa cell line) median IC50
# Procedure: Cultivated tumor cells (cells were ordered from ATCC, except HeLa-MaTu and HeLa-MaTu-ADR, which were ordered from EPO-GmbH, Berlin) were plated at a density of 1000 to 5000 cells/well, depending on the growth rate of the respective cell line, in a 96-well multititer plate in 200 μL of their respective growth medium supplemented 10% fetal calf serum. After 24 h, the cells of one plate (zero-point plate) were stained with crystal violet (see below), while the medium of the other plates was replaced by fresh culture medium (200 μL), to which the test substances were added in various concentrations (0 μM, as well as in the range of 0.001-10 μM; the final concentration of the solvent DMSO was 0.5%). The cells were incubated for 4 days in the presence of test substances. Cell proliferation was determined by staining the cells with crystal violet: the cells were fixed by adding 20 μL/measuring point of an 11% glutaric aldehyde solution for 15 min at rt. After three washing cycles of the fixed cells with water, the plates were dried at rt. The cells were stained by adding 100 μL/measuring point of a 0.1% crystal violet solution (pH 3.0). After three washing cycles of the stained cells with water, the plates were dried at rt. The dye was dissolved by adding 100 μL/measuring point of a 10% acetic acid solution. Absorbtion was determined by photometry at a wavelength of 595 nm. The change of cell number, in percent, was calculated by normalization of the measured values to the aborbtion values of the zero-point plate (=0%) and the absorbtion of the untreated (0 μm) cells (=100%). The IC50 values were determined by means of a 4 parameter fit.
# T1 sequence (O43683 704-1085): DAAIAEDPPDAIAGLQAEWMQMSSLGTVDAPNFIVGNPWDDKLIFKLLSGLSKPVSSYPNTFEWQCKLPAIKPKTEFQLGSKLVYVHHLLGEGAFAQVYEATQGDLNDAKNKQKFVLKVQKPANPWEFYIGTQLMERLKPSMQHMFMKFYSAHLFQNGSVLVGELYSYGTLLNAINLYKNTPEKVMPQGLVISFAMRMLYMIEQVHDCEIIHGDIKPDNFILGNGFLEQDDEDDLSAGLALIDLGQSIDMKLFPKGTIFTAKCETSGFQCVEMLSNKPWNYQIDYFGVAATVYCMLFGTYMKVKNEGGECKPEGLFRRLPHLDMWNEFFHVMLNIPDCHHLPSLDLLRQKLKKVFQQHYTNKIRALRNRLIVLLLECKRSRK
IC50 [1] [nM],IC50 (HeLa cell line) [nM],Compound
100,≥ 10000,"COc1ccc(Cn2nc(-c3ncc(O)c(Nc4ccncc4)n3)c3c2CCC3)cc1 [Example 2-2-3, 2-[1-(4-methoxy-benzyl)-1,4,5,6-tetrahydrocyclopenta [c]pyrazol-3-yl]-4-(pyridin-4-ylamino) pyrimidin-5-ol]"
9,1000,"CCOc1cc(F)c(Cn2nc(-c3ncc(OCCN(C)C)c(Nc4ccncc4)n3)c3c2CCC3)c(F)c1 [Example 2-3-1, 5-[2-(dimethylamino)ethoxy]-2-[1-(4-ethoxy-2,6-difluorobenzyl)-1,4,5,6-tetrahydrocyclopenta[c]pyrazol-3-yl]-N-(pyridin-4-yl)pyrimidin-4-amine]"
6,≥ 10000,"CCOc1cc(F)c(Cn2nc(-c3ncc(OCC4(CO)COC4)c(Nc4ccncc4)n3)c3c2CCC3)c(F)c1 [Example 2-3-2, {3-[({2-[1-(4-ethoxy-2,6-difluoro-benzyl)-1,4,5,6-tetrahydrocyclopenta [c]pyrazol-3-yl]-4-(pyridin-4-ylamino)pyrimidin-5-yl}oxy)methyl]oxetan-3-yl}methanol]"
20,1000,"CCOc1cc(F)c(Cn2nc(-c3ncc(OCCN4CCCC4)c(Nc4ccncc4)n3)c3c2CCC3)c(F)c1 [Example 2-3-3, 2-[1-(4-ethoxy-2,6-difluoro-benzyl)-1,4,5,6-tetrahydrocyclopenta [c]pyrazol-3-yl]-N-(pyridin-4-yl)-5-[2-(pyrrolidin-1-yl)ethoxy] pyrimidin-4-amine]"
40,≥ 10000,"CCOC(=O)c1cnccc1Nc1nc(-c2nn(Cc3ccccc3F)c3c2CCC3)ncc1OCC1(CO)COC1 [Example 2-3-4, ethyl 4-[(2-[1-(2-fluoro-benzyl)-1,4,5,6-tetrahydrocyclopenta [c]pyrazol-3-yl]-5-{[3-(hydroxymethyl)oxetan-3-yl]methoxy}pyrimidin-4-yl)amino] nicotinate]"
40,4000,"N#Cc1cnccc1Nc1nc(-c2nn(Cc3ccccc3F)c3c2CCC3)ncc1OCC1(CO)COC1 [Example 2-3-5, 4-[(2-[1-(2-fluoro-benzyl)-1,4,5,6-tetrahydrocyclopenta [c]pyrazol-3-yl]-5-{[3-(hydroxymethyl)oxetan-3-yl]methoxy}pyrimidin-4-yl)amino] nicotinonitrile]"
100,≥ 10000,"CS(=O)(=O)CCCOc1cnc(-c2nn(Cc3ccccc3F)c3c2CCC3)nc1Nc1ccncc1C(N)=O [Example 2-3-9, 4-({2-[1-(2-fluoro-benzyl)-1,4,5,6-tetrahydrocyclopenta [c]pyrazol-3-yl]-5-[3-(methyl-sulfonyl)propoxy]pyrimidin-4-yl}amino) nicotinamide]"
200,≥ 10000,"CCOc1cc(F)c(Cn2nc(-c3ncc(O)c(N(CCN(C)C)c4ccncc4)n3)c3c2CCC3)c(F)c1 [Example 2-4-1, 4-{[2-(dimethylamino)ethyl](pyridin-4-yl)amino}-2-[1-(4-ethoxy-2,6-difluorobenzyl)-1,4,5,6-tetrahydrocyclopenta[c]pyrazol-3-yl]pyrimidin-5-ol]"
900,≥ 10000,"CCOc1cc(F)c(Cn2nc(-c3ncc(O)c(N(CCN4CCCC4)c4ccncc4)n3)c3c2CCC3)c(F)c1 [Example 2-4-2, 2-[1-(4-ethoxy-2,6-difluoro-benzyl)-1,4,5,6-tetrahydrocyclopenta [c]pyrazol-3-yl]-4-{pyridin-4-yl[2-(pyrrolidin-1-yl)ethyl]amino} pyrimidin-5-ol]"
10,≥ 10000,"COc1cnc(-c2nn(Cc3ccccc3F)c3c2CCC3)nc1Nc1ccncc1C(N)=O [Example 2-5-1, 4-({2-[1-(2-fluorobenzyl)-1,4,5,6-tetrahydrocyclopenta[c]pyrazol-3-yl]-5-methoxypyrimidin-4-yl}amino)nicotinamide]"
30,≥ 10000,"CCOC(=O)c1cnccc1Nc1nc(-c2nn(Cc3ccccc3F)c3c2CCC3)ncc1O [Example 2-8-1, ethyl 4-({2-[1-(2-fluorobenzyl)-1,4,5,6-tetrahydrocyclopenta[c]pyrazol-3-yl]-5-hydroxypyrimidin-4-yl}amino)nicotinate]"
70,50000,"NC(=O)c1cnccc1Nc1nc(-c2nn(Cc3ccccc3F)c3c2CCC3)ncc1OCCO [Example 2-10-1, 4-({2-[1-(2-fluorobenzyl)-1,4,5,6-tetrahydrocyclopenta[c]pyrazol-3-yl]-5-(2-hydroxyethoxyl)pyrimidin-4-yl}amino)nicotinamide]"
2000,≥ 10000,"NC(=O)c1cnccc1N(CCO)c1nc(-c2nn(Cc3ccccc3F)c3c2CCC3)ncc1OCCO [Example 2-10-2, 4-[{2-[1-(2-fluoro-benzyl)-1,4,5,6-tetrahydrocyclopenta [c]pyrazol-3-yl]-5-(2-hydroxy-ethoxy)pyrimidin-4-yl}(2-hydroxy-ethyl)amino] nicotinamide]"
400,≥ 10000,"N#Cc1cnccc1Nc1nc(-c2nn(Cc3ccccc3F)c3c2CCC3)ncc1OCCO [Example 2-11-1, 4-({2-[1-(2-fluorobenzyl)-1,4,5,6-tetrahydrocyclopenta[c]pyrazol-3-yl]-5-(2-hydroxyethoxyl)pyrimidin-4-yl}amino)nicotinonitrile]"
4,4000,"CCOc1cc(F)c(Cn2nc(-c3ncc(OCCO)c(Nc4ccncc4)n3)c3c2CCC3)c(F)c1 [Example 2-11-2, 2-({2-[1-(4-ethoxy-2,6-difluoro-benzyl)-1,4,5,6-tetrahydrocyclopenta [c]pyrazol-3-yl]-4-(pyridin-4-ylamino)pyrimidin-5-yl}oxy) ethanol]"
30,≥ 10000,"CS(=O)(=O)CCOc1cnc(-c2nn(Cc3ccccc3F)c3c2CCC3)nc1Nc1ccncc1C(N)=O [Example 2-13-1, 4-({2-[1-(2-fluorobenzyl)-1,4,5,6-tetrahydrocyclopenta[c]pyrazol-3-yl]-5-[2-(methylsulfonyl)ethoxy]pyrimidin-4-yl}amino)nicotinamide]"
